Reference: patent US8192962B2, “Processes for detecting toxic substances” (Daikin Industries, Ltd., priority 2001, dated 2012)

System: Unknown protein yeast genes
Test: DNA chip mRNA expression in yeast, unknown protein yeast genes (Table 1)
Assay type: cell-based, Saccharomyces cerevisiae S288C
Procedure, shortened: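 In this screen, yeast in logarithmic growth are challenged for two hours with a toxic substance at a non-lethal inhibitory concentration. Their mRNA, converted to Cy3- or Cy5-labeled cDNA, hybridizes at 65° C. to a chip spanning every yeast gene, and expression is expressed as a ratio to untreated cells.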

In the case of `C=CC=O` [(14), acrolein], the “The level of expressed mRNA in the presence of chemical substance/The level of expressed mRNA in the absence of chemical substance” value (yeast gene YKL195W, incubated two hours with chemical substance) is reported as 1.6, the “The level of expressed mRNA in the presence of chemical substance/The level of expressed mRNA in the absence of chemical substance” value (yeast gene YKR091W, incubated two hours with chemical substance) is reported as 1.9 and the “The level of expressed mRNA in the presence of chemical substance/The level of expressed mRNA in the absence of chemical substance” value (yeast gene YLR054C, incubated two hours with chemical substance) is reported as 1.1. The “The level of expressed mRNA in the presence of chemical substance/The level of expressed mRNA in the absence of chemical substance” value (yeast gene YLR149C, incubated two hours with chemical substance) was 1.2, the “The level of expressed mRNA in the presence of chemical substance/The level of expressed mRNA in the absence of chemical substance” value (yeast gene YLR152C, incubated two hours with chemical substance) was 1.2 and the “The level of expressed mRNA in the presence of chemical substance/The level of expressed mRNA in the absence of chemical substance” value (yeast gene YLR194C, incubated two hours with chemical substance) was 1.2. The “The level of expressed mRNA in the presence of chemical substance/The level of expressed mRNA in the absence of chemical substance” value (yeast gene YLR297W) was 2.3, the “The level of expressed mRNA in the presence of chemical substance/The level of expressed mRNA in the absence of chemical substance” value (yeast gene YLR324W, incubated two hours with chemical substance) was 1.4 and the “The level of expressed mRNA in the presence of chemical substance/The level of expressed mRNA in the absence of chemical substance” value (yeast gene YLR350W, incubated two hours with chemical substance) was 2.8. For the same compound, the “The level of expressed mRNA in the presence of chemical substance/The level of expressed mRNA in the absence of chemical substance” value (yeast gene YLR387C, incubated two hours with chemical substance) was 1.7, the “The level of expressed mRNA in the presence of chemical substance/The level of expressed mRNA in the absence of chemical substance” value (yeast gene YLR460C) was 3.5 and the “The level of expressed mRNA in the presence of chemical substance/The level of expressed mRNA in the absence of chemical substance” value (yeast gene YML117W, incubated two hours with chemical substance) was 0.8. For the same compound, the “The level of expressed mRNA in the presence of chemical substance/The level of expressed mRNA in the absence of chemical substance” value (yeast gene YMR009W, incubated two hours with chemical substance) was 1.9, the “The level of expressed mRNA in the presence of chemical substance/The level of expressed mRNA in the absence of chemical substance” value (yeast gene YMR067C, incubated two hours with chemical substance) was 1.5 and the “The level of expressed mRNA in the presence of chemical substance/The level of expressed mRNA in the absence of chemical substance” value (yeast gene YMR090W) was 6.5. The “The level of expressed mRNA in the presence of chemical substance/The level of expressed mRNA in the absence of chemical substance” value (yeast gene YMR095C, incubated two hours with chemical substance) was 2.2, the “The level of expressed mRNA in the presence of chemical substance/The level of expressed mRNA in the absence of chemical substance” value (yeast gene YMR097C, incubated two hours with chemical substance) was 2.1 and the “The level of expressed mRNA in the presence of chemical substance/The level of expressed mRNA in the absence of chemical substance” value (yeast gene YMR102C, incubated two hours with chemical substance) was 0.7. The “The level of expressed mRNA in the presence of chemical substance/The level of expressed mRNA in the absence of chemical substance” value (yeast gene YMR107W, incubated two hours with chemical substance) was 8.1, the “The level of expressed mRNA in the presence of chemical substance/The level of expressed mRNA in the absence of chemical substance” value (yeast gene YMR180C, incubated two hours with chemical substance) was 1.7 and the “The level of expressed mRNA in the presence of chemical substance/The level of expressed mRNA in the absence of chemical substance” value (yeast gene YMR184W, incubated two hours with chemical substance) was 1.5. For the same compound, the “The level of expressed mRNA in the presence of chemical substance/The level of expressed mRNA in the absence of chemical substance” value (yeast gene YMR191W, incubated two hours with chemical substance) was 1.5, the “The level of expressed mRNA in the presence of chemical substance/The level of expressed mRNA in the absence of chemical substance” value (yeast gene YMR295C, incubated two hours with chemical substance) was 1.3 and the “The level of expressed mRNA in the presence of chemical substance/The level of expressed mRNA in the absence of chemical substance” value (yeast gene YMR316W, incubated two hours with chemical substance) was 1.3. The “The level of expressed mRNA in the presence of chemical substance/The level of expressed mRNA in the absence of chemical substance” value (yeast gene YNL044W, incubated two hours with chemical substance) was 1.2, the “The level of expressed mRNA in the presence of chemical substance/The level of expressed mRNA in the absence of chemical substance” value (yeast gene YNL074C, incubated two hours with chemical substance) was 0.6 and the “The level of expressed mRNA in the presence of chemical substance/The level of expressed mRNA in the absence of chemical substance” value (yeast gene YNL092W, incubated two hours with chemical substance) was 1.2. For the same compound, the “The level of expressed mRNA in the presence of chemical substance/The level of expressed mRNA in the absence of chemical substance” value (yeast gene YNL115C, incubated two hours with chemical substance) was 1.0, the “The level of expressed mRNA in the presence of chemical substance/The level of expressed mRNA in the absence of chemical substance” value (yeast gene YNL156C, incubated two hours with chemical substance) was 1.4 and the “The level of expressed mRNA in the presence of chemical substance/The level of expressed mRNA in the absence of chemical substance” value (yeast gene YNL234W, incubated two hours with chemical substance) was 1.5. For the same compound, the “The level of expressed mRNA in the presence of chemical substance/The level of expressed mRNA in the absence of chemical substance” value (yeast gene YNL281W, incubated two hours with chemical substance) was 1.2, the “The level of expressed mRNA in the presence of chemical substance/The level of expressed mRNA in the absence of chemical substance” value (yeast gene YNL305C, incubated two hours with chemical substance) was 1.3 and the “The level of expressed mRNA in the presence of chemical substance/The level of expressed mRNA in the absence of chemical substance” value (yeast gene YNR068C, incubated two hours with chemical substance) was 1.8. The “The level of expressed mRNA in the presence of chemical substance/The level of expressed mRNA in the absence of chemical substance” value (yeast gene YOL032W, incubated two hours with chemical substance) was 1.3, the “The level of expressed mRNA in the presence of chemical substance/The level of expressed mRNA in the absence of chemical substance” value (yeast gene YOL036W, incubated two hours with chemical substance) was 1.0 and the “The level of expressed mRNA in the presence of chemical substance/The level of expressed mRNA in the absence of chemical substance” value (yeast gene YOL047C, incubated two hours with chemical substance) was 1.2. For the same compound, the “The level of expressed mRNA in the presence of chemical substance/The level of expressed mRNA in the absence of chemical substance” value (yeast gene YOL071W, incubated two hours with chemical substance) was 2.5, the “The level of expressed mRNA in the presence of chemical substance/The level of expressed mRNA in the absence of chemical substance” value (yeast gene YOL082W, incubated two hours with chemical substance) was 1.4 and the “The level of expressed mRNA in the presence of chemical substance/The level of expressed mRNA in the absence of chemical substance” value (yeast gene YOL083W, incubated two hours with chemical substance) was 1.4. The “The level of expressed mRNA in the presence of chemical substance/The level of expressed mRNA in the absence of chemical substance” value (yeast gene YOL117W, incubated two hours with chemical substance) was 1.7, the “The level of expressed mRNA in the presence of chemical substance/The level of expressed mRNA in the absence of chemical substance” value (yeast gene YOL131W, incubated two hours with chemical substance) was 2.3 and the “The level of expressed mRNA in the presence of chemical substance/The level of expressed mRNA in the absence of chemical substance” value (yeast gene YOL150C) was 5.7. For the same compound, the “The level of expressed mRNA in the presence of chemical substance/The level of expressed mRNA in the absence of chemical substance” value (yeast gene YOL162W, incubated two hours with chemical substance) was 1.4, the “The level of expressed mRNA in the presence of chemical substance/The level of expressed mRNA in the absence of chemical substance” value (yeast gene YOR019W, incubated two hours with chemical substance) was 1.4 and the “The level of expressed mRNA in the presence of chemical substance/The level of expressed mRNA in the absence of chemical substance” value (yeast gene YOR197W, incubated two hours with chemical substance) was 0.7. The “The level of expressed mRNA in the presence of chemical substance/The level of expressed mRNA in the absence of chemical substance” value (yeast gene YPL087W, incubated two hours with chemical substance) was 1.2, the “The level of expressed mRNA in the presence of chemical substance/The level of expressed mRNA in the absence of chemical substance” value (yeast gene YPL196W, incubated two hours with chemical substance) was 1.6 and the “The level of expressed mRNA in the presence of chemical substance/The level of expressed mRNA in the absence of chemical substance” value (yeast gene YPL206C, incubated two hours with chemical substance) was 1.1. For the same compound, the “The level of expressed mRNA in the presence of chemical substance/The level of expressed mRNA in the absence of chemical substance” value (yeast gene YPL222W, incubated two hours with chemical substance) was 1.1, the “The level of expressed mRNA in the presence of chemical substance/The level of expressed mRNA in the absence of chemical substance” value (yeast gene YPR023C, incubated two hours with chemical substance) was 0.9 and the “The level of expressed mRNA in the presence of chemical substance/The level of expressed mRNA in the absence of chemical substance” value (yeast gene YPR151C, incubated two hours with chemical substance) was 1.4.
